According to ChEMBL document CHEMBL2434921, “New synthetic aliphatic sulfonamido-quaternary ammonium salts as anticancer chemotherapeutic agents” (2013):
Calls of active or inactive are those of the source. The calls are words filed in the database; no cut-off is given here.

Assays:
[1] = tested on: NCI-H23; test: Growth inhibition of human NCI-H23 cells after 48 hrs by SRB assay; format: functional; conditions: NCI-H23, 48 h
[2] = tested on: HCT-15; test: Growth inhibition of human HCT15 cells after 48 hrs by SRB assay; format: functional; conditions: HCT-15, 48 h
[3] = target: Rho-related GTP-binding protein RhoB (Homo sapiens) (UniProt P62745); test: Transactivation of RhoB (unknown origin) transfected in human HeLa cells at 5 uM measured over 10 secs by dual luciferase reporter gene assay; format: cell-based
Sequence of Rho-related GTP-binding protein RhoB (Homo sapiens) (P62745 whole entry): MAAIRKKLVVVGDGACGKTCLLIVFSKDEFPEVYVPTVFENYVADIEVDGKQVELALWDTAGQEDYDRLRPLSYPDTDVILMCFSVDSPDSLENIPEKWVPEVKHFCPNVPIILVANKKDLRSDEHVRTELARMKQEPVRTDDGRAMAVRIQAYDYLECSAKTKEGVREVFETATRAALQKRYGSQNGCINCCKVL

[4] = tested on: NUGC-3; test: Growth inhibition of human NUGC3 cells after 48 hrs by SRB assay; format: functional; conditions: NUGC-3, 48 h
[5] = tested on: ACHN; test: Growth inhibition of human ACHN cells after 48 hrs by SRB assay; format: functional
[6] = tested on: MDA-MB-231; test: Growth inhibition of human MDA-MB-231 cells after 48 hrs by SRB assay; format: functional; conditions: MDA-MB-231, 48 h
[7] = tested on: PC-3; test: Growth inhibition of human PC3 cells after 48 hrs by SRB assay; format: functional; conditions: PC-3, 48 h
[8] = tested on: PC-3; test: Growth of human PC3 cells at 10 uM after 48 hrs by SRB assay; conditions: PC-3, 48 h
[9] = tested on: NUGC-3; test: Growth of human NUGC3 cells at 1 uM after 48 hrs by SRB assay; conditions: NUGC-3, 48 h
[10] = tested on: ACHN; test: Growth of human ACHN cells at 10 uM after 48 hrs by SRB assay
[11] = tested on: HCT-15; test: Growth of human HCT15 cells at 3 uM after 48 hrs by SRB assay; conditions: HCT-15, 48 h
[12] = tested on: ACHN; test: Growth of human ACHN cells at 0.1 uM after 48 hrs by SRB assay
[13] = tested on: ACHN; test: Growth of human ACHN cells at 0.3 uM after 48 hrs by SRB assay
[14] = tested on: NUGC-3; test: Growth of human NUGC3 cells at 0.1 uM after 48 hrs by SRB assay; conditions: NUGC-3, 48 h
[15] = tested on: NUGC-3; test: Growth of human NUGC3 cells at 0.3 uM after 48 hrs by SRB assay; conditions: NUGC-3, 48 h
[16] = tested on: HCT-15; test: Growth of human HCT15 cells at 0.3 uM after 48 hrs by SRB assay; conditions: HCT-15, 48 h
[17] = tested on: NCI-H23; test: Growth of human NCI-H23 cells at 10 uM after 48 hrs by SRB assay; conditions: NCI-H23, 48 h
[18] = tested on: NCI-H23; test: Growth of human NCI-H23 cells at 0.3 uM after 48 hrs by SRB assay; conditions: NCI-H23, 48 h
[19] = tested on: MDA-MB-231; test: Growth of human MDA-MB-231 cells at 1 uM after 48 hrs by SRB assay; conditions: MDA-MB-231, 48 h
[20] = tested on: MDA-MB-231; test: Growth of human MDA-MB-231 cells at 10 uM after 48 hrs by SRB assay; conditions: MDA-MB-231, 48 h
[21] = tested on: MDA-MB-231; test: Growth of human MDA-MB-231 cells at 0.1 uM after 48 hrs by SRB assay; conditions: MDA-MB-231, 48 h
[22] = tested on: MDA-MB-231; test: Growth of human MDA-MB-231 cells at 3 uM after 48 hrs by SRB assay; values are per cent of control; conditions: MDA-MB-231, 48 h
[23] = tested on: PC-3; test: Growth inhibition of human PC3 cells at 1 uM after 48 hrs by SRB assay; values are per cent of control; conditions: PC-3, 48 h
[24] = tested on: PC-3; test: Growth inhibition of human PC3 cells at 3 uM after 48 hrs by SRB assay; values are per cent of control; conditions: PC-3, 48 h
[25] = tested on: ACHN; test: Growth inhibition of human ACHN cells at 3 uM after 48 hrs by SRB assay; values are per cent of control
[26] = tested on: ACHN; test: Growth inhibition of human ACHN cells at 1 uM after 48 hrs by SRB assay; values are per cent of control
[27] = tested on: NUGC-3; test: Growth inhibition of human NUGC3 cells at 3 uM after 48 hrs by SRB assay; values are per cent of control; conditions: NUGC-3, 48 h
[28] = tested on: PC-3; test: Growth inhibition of human PC3 cells at 0.1 uM after 48 hrs by SRB assay; values are per cent of control; conditions: PC-3, 48 h
[29] = tested on: PC-3; test: Growth inhibition of human PC3 cells at 0.3 uM after 48 hrs by SRB assay; values are per cent of control; conditions: PC-3, 48 h
[30] = tested on: HCT-15; test: Growth inhibition of human HCT15 cells at 1 uM after 48 hrs by SRB assay; values are per cent of control; conditions: HCT-15, 48 h
[31] = tested on: NUGC-3; test: Growth inhibition of human NUGC3 cells at 10 uM after 48 hrs by SRB assay; values are per cent of control; conditions: NUGC-3, 48 h
[32] = tested on: HCT-15; test: Growth inhibition of human HCT15 cells at 10 uM after 48 hrs by SRB assay; values are per cent of control; conditions: HCT-15, 48 h
[33] = tested on: NCI-H23; test: Growth inhibition of human NCI-H23 cells at 1 uM after 48 hrs by SRB assay; values are per cent of control; conditions: NCI-H23, 48 h
[34] = tested on: NCI-H23; test: Growth inhibition of human NCI-H23 cells at 3 uM after 48 hrs by SRB assay; values are per cent of control; conditions: NCI-H23, 48 h
[35] = tested on: HCT-15; test: Growth inhibition of human HCT15 cells at 0.1 uM after 48 hrs by SRB assay; values are per cent of control; conditions: HCT-15, 48 h
[36] = tested on: NCI-H23; test: Growth inhibition of human NCI-H23 cells at 0.1 uM after 48 hrs by SRB assay; values are per cent of control; conditions: NCI-H23, 48 h
[37] = tested on: MDA-MB-231; test: Growth inhibition of human MDA-MB-231 cells at 0.3 uM after 48 hrs by SRB assay; values are per cent of control; conditions: MDA-MB-231, 48 h

| SMILES | GI50 [1] | GI50 [2] | GI50 [4] | GI50 [5] | GI50 [6] | GI50 [7] | growth, % of control at 10 µM [8] | growth, % of control at 1 µM [9] | growth, % of control at 10 µM [10] | growth, % of control at 3 µM [11] | growth, % of control at 0.1 µM [12] | growth, % of control at 0.3 µM [13] | growth, % of control at 0.1 µM [14] | growth, % of control at 0.3 µM [15] | growth, % of control at 0.3 µM [16] | growth, % of control at 10 µM [17] | growth, % of control at 0.3 µM [18] | growth, % of control at 1 µM [19] | growth, % of control at 10 µM [20] | growth, % of control at 0.1 µM [21] | further results |
| --- | --- | --- | --- | --- | --- | --- | --- | --- | --- | --- | --- | --- | --- | --- | --- | --- | --- | --- | --- | --- | --- |
| CCCCCCCCCCCCCCCCS(=O)(=O)N(C)CC[N+](CC)(CC)CC | 550 nM | 1610 nM | 220 nM | 1310 nM | 1170 nM | 520 nM | -21.4% | 19.6% | 15.4% | 50.9% | 92.6% | 92.8% | 69.8% | 70.3% | 87.6% | 3.4% | 93.7% | 65.5% | 20% | 87.3% | Activity [3]: Active; growth, % of control at 3 µM [22]: 37.4%; growth, % of control at 1 µM [23]: 47.5%; growth, % of control at 3 µM [24]: 11.3%; growth, % of control at 3 µM [25]: 43.4%; growth, % of control at 1 µM [26]: 70.4%; growth, % of control at 3 µM [27]: 5.8%; growth, % of control at 0.1 µM [28]: 95.5%; growth, % of control at 0.3 µM [29]: 84.7%; growth, % of control at 1 µM [30]: 73.5%; growth, % of control at 10 µM [31]: -4%; growth, % of control at 10 µM [32]: 21.8%; growth, % of control at 1 µM [33]: 44.3%; growth, % of control at 3 µM [34]: 15.5%; growth, % of control at 0.1 µM [35]: 83%; growth, % of control at 0.1 µM [36]: 94%; growth, % of control at 0.3 µM [37]: 96.5% |
| CCCCCCCCCCCCCCS(=O)(=O)N(C)CCC[N+](C)(C)CC | 380 nM | 1270 nM | 130 nM | 540 nM | 750 nM | 220 nM | -31.6% | 7.9% | 16.9% | 42.2% | 87.9% | 78.5% | 75.5% | 46.3% | 87.8% | -16.9% | 79.8% | 55.2% | 7.1% | 95.9% | Activity [3]: Active; growth, % of control at 3 µM [22]: 32.1%; growth, % of control at 1 µM [23]: 14.6%; growth, % of control at 3 µM [24]: -17%; growth, % of control at 3 µM [25]: 31.4%; growth, % of control at 1 µM [26]: 41.7%; growth, % of control at 3 µM [27]: -12.5%; growth, % of control at 0.1 µM [28]: 84.9%; growth, % of control at 0.3 µM [29]: 68.3%; growth, % of control at 1 µM [30]: 68.9%; growth, % of control at 10 µM [31]: -18.3%; growth, % of control at 10 µM [32]: 23%; growth, % of control at 1 µM [33]: 38.4%; growth, % of control at 3 µM [34]: 3%; growth, % of control at 0.1 µM [35]: 106%; growth, % of control at 0.1 µM [36]: 96.4%; growth, % of control at 0.3 µM [37]: 91.4% |
| CCCCCCCCCCCCCCCCS(=O)(=O)NCC(C)(C)C[N+](C)(C)CC | 690 nM | 1350 nM | 570 nM | 2270 nM | 2790 nM | 790 nM | -11.1% | 43.8% | 104% | 40.2% | 108% | 100% | 115% | 108% | 138% | -10.9% | 92.1% | 88.6% | 27.1% | 108% | growth, % of control at 3 µM [22]: 66%; growth, % of control at 1 µM [23]: 69.4%; growth, % of control at 3 µM [24]: 12.9%; growth, % of control at 3 µM [25]: 102%; growth, % of control at 1 µM [26]: 99.6%; growth, % of control at 3 µM [27]: 18.8%; growth, % of control at 0.1 µM [28]: 109%; growth, % of control at 0.3 µM [29]: 99.5%; growth, % of control at 1 µM [30]: 63.2%; growth, % of control at 10 µM [31]: 0%; growth, % of control at 10 µM [32]: 21.3%; growth, % of control at 1 µM [33]: 50.5%; growth, % of control at 3 µM [34]: 30.4%; growth, % of control at 0.1 µM [35]: 141%; growth, % of control at 0.1 µM [36]: 100%; growth, % of control at 0.3 µM [37]: 103% |
